Experimental data: patent US20070099938A1, “Antistress drug and medical use thereof” (ONO PHARMACEUTICAL CO., LTD., priority 2003, published 2007)
pKi: −log10 of the molar value.

Target: T1, MBR (Rattus norvegicus, UniProt P16257)
T1 construct: from tissue; host or cells: whole brain without cerebellum of male Wistar rats, crude membrane pellet
Test: Receptor binding experiment ([3H]PK11195 competition, rat brain membrane preparation)
Conditions: [3H]PK11195 0.5 or 1 nmol/L, Cheng and Prusoff from KD and IC50
Experimental: The affinity of the compounds in the present invention to MBR was determined using rat brain membrane preparation. In addition, the measurement in the present invention was improved the accuracy of measurement and the sensitivity of measurement for evaluating the compounds in the present invention as follows. After male Wister rats were decapitated to extirpate the whole brain and cerebellums were removed. They were homogenized in ice-cold 50 mmol/L Tris-HCL buffer solution (pH 7.4), centrifuged and the obtained pellets were washed. The pellets resuspended and adjusted to about 1 mg/mL were used as rat brain membrane preparations for binding assay. The binding assay were experimented using [^3H]PK11195 as a MBR selective ligand. […]
To determine the amount of total binding in saturation binding experiment, membrane preparations, various concentrations of [^3H]PK11195, final concentration: 0.5 vol % dimethylsulfoxide (DMSO) and 50 mmol/L Tris-HCL buffer solution (pH 7.4) were mixed (total volume 200 μL) and were incubated for 1 hour at room temperature. […] The filter was dried and then the radioactivity on the filter was measured by liquid scintillation counter. The data obtained by the binding experiments were Scatchard analyzed using analysis software, KELL (Ver.6, BIOSOFT) and the dissociation constant (KD value) was determined. […]

SMILES	pKi
O=S(=O)(Nc1nccc(-c2cc(OC(F)F)ccc2OC(F)F)n1)c1ccccc1 [Example 5(2), N-{4-[2,5-bis(difluoromethoxy)phenyl]pyrimidin-2-yl}benzenesulfonamide]	8.00
CC(=O)Nc1cccc(-c2ccnc(NC(=O)c3ccccc3)n2)c1 [Example 3(46), N-{4-[3-(acetylamino)phenyl]pyrimidin-2-yl}benzamide]	6.44
